Assay results from PubChem BioAssay AID330 (DTP/NCI, 2004).
Several values for one entry are separate records, joined by “and”; a condition that tells them apart may be missing. Equal values may be shown once. Toxic doses and inconclusive results are not listed. How the source made its calls: active means survival T/C of 150% or more; inactive means T/C below 125% in these data.

Test system: P388 leukemia ip, CD2F1 mice, survival T/C
Test: NCI In Vivo Anticancer Drug Screen. Data for tumor model P388 Leukemia (intraperitoneal) in CD2F1 (CDF1) mice
Conditions: endpoint: median survival time, higher = longer survival
Procedure, shortened: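 Mice carrying the transplanted tumor received test compound or vehicle. Survival was recorded in each group, and the value is the treated-group measurement divided by that of the vehicle-treated control group.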

[1] = dose: 50.0 mg/kg/injection, schedule: Q01DX005 (ip), vehicle: Klucel (hydroxypropylcellulose) (HPC)
[2] = dose: 100.0 mg/kg/injection, schedule: Q01DX005 (ip), vehicle: Klucel (hydroxypropylcellulose) (HPC)
[3] = dose: 200.0 mg/kg/injection, schedule: Q01DX005 (ip), vehicle: Klucel (hydroxypropylcellulose) (HPC)
[4] = dose: 100.0 mg/kg/injection, schedule: Q01DX001 (ip), vehicle: saline

Measured: T/C

CC1(C)OCC(N)[C@@H](O)CO1 (stereo partly drawn)
inactive: dose: 60.0 mg/kg/injection, schedule: Q01DX005 (ip), vehicle: saline 100 % of control | dose: 120.0 mg/kg/injection, schedule: Q01DX005 (ip), vehicle: saline 96 % of control | dose: 240.0 mg/kg/injection, schedule: Q01DX005 (ip), vehicle: saline 100 % of control

O=C1Oc2ccccc2C(=O)C1=Ic1ccccc1
inactive: [1] 88 % of control | [2] 94 % of control | [3] 95 % of control

CN(C)C(CS(=O)(=O)c1ccccc1)c1ccccc1 (stereo not drawn)
inactive: dose: 60.0 mg/kg/injection, schedule: Q01DX005 (ip), vehicle: Klucel (hydroxypropylcellulose) (HPC) 100 % of control | dose: 120.0 mg/kg/injection, schedule: Q01DX005 (ip), vehicle: Klucel (hydroxypropylcellulose) (HPC) 91 % of control | dose: 240.0 mg/kg/injection, schedule: Q01DX005 (ip), vehicle: Klucel (hydroxypropylcellulose) (HPC) 91 % of control

O=[N+]([O-])c1ccccc1N/N=C\c1cccc2c(/C=N/Nc3ccccc3[N+](=O)[O-])c(Cl)n(-c3ccccc3)c12
inactive: dose: 200.0 mg/kg/injection, schedule: Q01DX001 (ip), vehicle: Klucel (hydroxypropylcellulose) (HPC) 88 % of control

O=S(=O)(O)Oc1c(S(=O)(=O)O)c(S(=O)(=O)O)c(O)c(S(=O)(=O)O)c1S(=O)(=O)O
inactive: dose: 25.0 mg/kg/injection, schedule: Q01DX001 (ip), vehicle: saline 111 % of control | dose: 50.0 mg/kg/injection, schedule: Q01DX001 (ip), vehicle: saline 113 % of control | dose: 100.0 mg/kg/injection, schedule: Q01DX001 (ip), vehicle: saline with Tween-80 103 % of control | [4] 94 % of control

CC1(C)N=C(N)N=C(N)N1c1ccc(OCCCOc2ccc(S(=O)(=O)F)cc2)c(Cl)c1
inactive: dose: 12.5 mg/kg/injection, schedule: Q04DX003 (ip), vehicle: saline 120 % of control | dose: 25.0 mg/kg/injection, schedule: Q04DX003 (ip), vehicle: saline 115 % of control

O=C1CC(N2CCCC2)=Nc2ccccc2N1
inactive: [1] 113 % of control | [2] 104 % of control | [3] 103 % of control

CC1=CC(C)C[N+](C)(C)C1 (stereo not drawn)
inactive: dose: 3.12 mg/kg/injection, schedule: Q01DX005 (ip), vehicle: saline 104 % of control | dose: 6.25 mg/kg/injection, schedule: Q01DX005 (ip), vehicle: saline 103 % of control | dose: 12.5 mg/kg/injection, schedule: Q01DX005 (ip), vehicle: saline 100 % of control | dose: 25.0 mg/kg/injection, schedule: Q01DX005 (ip), vehicle: saline 94 % of control

CCOc1ccc2nc3cc(I)ccc3c(N)c2c1
inactive: dose: 7.5 mg/kg/injection, schedule: Q01DX005 (ip), vehicle: saline with Tween-80 102 % of control | dose: 15.0 mg/kg/injection, schedule: Q01DX005 (ip), vehicle: saline with Tween-80 100 % of control | dose: 30.0 mg/kg/injection, schedule: Q01DX005 (ip), vehicle: saline with Tween-80 112 % of control

COC[C@H]1OC(=O)c2coc3c2[C@@]1(C)C1=C(C3=O)[C@@H]2CCC(=O)[C@@]2(C)C[C@H]1OC(C)=O
inactive: dose: 0.31 mg/kg/injection, schedule: Q01DX009 (ip), vehicle: saline with Tween-80 115 % of control | dose: 2.5 mg/kg/injection, schedule: Q01DX009 (ip), vehicle: saline with Tween-80 99 % of control and 90 % of control

O=NN(CCCl)C(=O)NC1CC2CCC1C2 (stereo not drawn)
active: dose: 12.5 mg/kg/injection, schedule: Q01DX009 (ip), vehicle: saline with Tween-80 195 % of control | dose: 25.0 mg/kg/injection, schedule: Q01DX009 (ip), vehicle: saline with Tween-80 250 % of control | dose: 25.0 mg/kg/injection, schedule: Q04DX003 (ip), vehicle: saline with Tween-80 225 % of control | dose: 33.0 mg/kg/injection, schedule: Q04DX003 (ip), vehicle: saline with Tween-80 213 % of control | dose: 50.0 mg/kg/injection, schedule: Q04DX003 (ip), vehicle: saline with Tween-80 204 % of control and 295 % of control
inactive: dose: 50.0 mg/kg/injection, schedule: Q01DX009 (ip), vehicle: saline with Tween-80 109 % of control | dose: 75.0 mg/kg/injection, schedule: Q04DX003 (ip), vehicle: saline with Tween-80 90 % of control

O=C(c1ccccc1)c1nc(-c2ccccc2)oc1-c1ccccc1
inactive: [4] 100 % of control | dose: 200.0 mg/kg/injection, schedule: Q01DX001 (ip), vehicle: saline 108 % of control | dose: 400.0 mg/kg/injection, schedule: Q01DX001 (ip), vehicle: saline 99 % of control

C=CC(C)(CCC=C(C)C)N=C=O (stereo not drawn)
inactive: dose: 12.5 mg/kg/injection, schedule: Q01DX009 (ip), vehicle: distilled water + Tween-80 100 % of control | dose: 25.0 mg/kg/injection, schedule: Q01DX009 (ip), vehicle: distilled water + Tween-80 91 % of control | dose: 50.0 mg/kg/injection, schedule: Q01DX009 (ip), vehicle: distilled water + Tween-80 105 % of control | dose: 100.0 mg/kg/injection, schedule: Q01DX009 (ip), vehicle: distilled water + Tween-80 114 % of control | dose: 200.0 mg/kg/injection, schedule: Q01DX009 (ip), vehicle: distilled water + Tween-80 108 % of control
